Reference: PMC3003687, “α-Galactosylceramide Analogs with Weak Agonist Activity for Human iNKT Cells Define New Candidate Anti-Inflammatory Agents” (PLoS ONE, 2010)

Key:
[1] = tested on: human iNKT cells and NK cells; assay: In vitro transactivation assay (CFSE-labeled iNKT cells co-cultured with PBMC); assay type: cell-based; conditions: 24 h; for IL-12 levels in supernatants / IL-13 levels in supernatants / IL-18 levels in supernatants / global IFNγ production in supernatants / ability to activate iNKT cells and stimulate NK cell transactivation (IFNγ+ cells): 100 nM; for IL-12 levels in supernatants / IL-13 levels in supernatants / IL-18 levels in supernatants / global IFNγ production in supernatants: ELISA; for ability to activate iNKT cells and stimulate NK cell transactivation (IFNγ+ cells): iNKT/PBMC 1/10, compared with KRN7000
Description: iNKT cells were stained for 5 minutes with 1–20 µM of CFSE (Molecular probes) and 5% FCS in PBS and washed twice. As a positive control, a fraction of CFSE-labeled iNKT cells were preactivated for 30 minutes with 1 µg/mL of PMA and 250 ng/mL of Ionomycin (Sigma-Aldrich) in culture medium and extensively washed. The experiment was initiated by adding CFSE-labeled unstimulated or PMA/Ionomycin-preactivated iNKT cells to freshly prepared PBMC pulsed with vehicle or αGalCer analogs at the indicated concentrations and at an iNKT/PBMC ratio of 1/10 or 1/40. Supernatants and cells were harvested from parallel conditions after the indicated time of co-culture. For intracellular cytokine staining, brefeldin A (Golgiplug, BD Biosciences) was added 4 h before harvesting the cells, which were fixed with 1% paraformaldehyde and permeabilized with 0.1% saponin (Sigma-Aldrich) prior to mAb staining. Experiments with blocking antibodies were performed with 10 µg/mL of preservative-free mAbs, including isotype matched control, anti-IL-2, anti-IL-12, anti-IFNγ and anti-CD40L (all from BD Biosciences) or anti-IL-18 (MBL). For detection of CD40L expression by iNKT cells, co-cultures of iNKT and PBMC were prepared as above, except that monensin (Golgistop, BD Biosciences) and fluorescent CD40L specific mAb (1/10 or 1/20 final dilution) were added at the beginning of the experiment, as previously described.
Figure 6 A novel in vitro “transactivation assay” to assess the ability of human iNKT cells to activate other leukocytes. (A) Format for analysis of transactivation of bystander leukocytes. Flow cytometric analysis was carried out for culture containing iNKT cells co-cultured for 24 hours with fresh human PBMC at a 1/10 ratio. For the intracellular detection of IFNγ, Brefeldin A was added for the last 4 hours. Representative electronic gating is shown for the discrimination of CFSE-labeled iNKT cells, B cells, T cells, and NK cells to measure IFNγ expression (or CD69 expression, not shown). Filled black histograms show staining with vehicle control and are overlaid with open gray histograms for stimulation with 100 nM of KRN7000. (B) Dose-dependent IFNγ and CD40L expression by iNKT cells (top and middle graph, respectively) and IFNγ production by transactivated NK cells (bottom graph), after 24 h of co-culture of CFSE-labeled iNKT cells and PBMCs at a 1/10 ratios and the indicated concentration of either KRN7000 (black filled circles) or the adamantanoyl (AD) analog (open circles). Data are presented for a CD4^+ clone (HDD3), and similar results (not shown) were obtained with a DN clone (HDE3). (C) Effect of specific blockade of various cytokines and CD40L on the activation of iNKT cells and transactivated NK cells. CFSE-labeled iNKT cells and PBMCs were co-cultured at a 1/40 ratio for the indicated time, in the presence of KRN7000 at 25 nM and 10 µg/mL of isotype matched control or specific blocking antibodies as indicated. Average percentages of IFNγ^+ iNKT cells and NK cells, assessed by intracellular staining at 24, 48 and 66 hours, are indicated in the left and right plots, respectively.
Figure 7 Comparison of αGalCer analogs for their ability to induce NK cell transactivation. (A) iNKT cell clones were co-cultured for 24 hours with fresh human PBMC at a 1/10 ratio with 100 nM of the indicated analogs, and Brefeldin A was added for the last 4 hours. The percentages of IFNγ^+ iNKT cells (open bars) and IFNγ^+ NK cells (filled bars) are indicated. Cytokine levels were assessed by ELISA in supernatants from identical conditions in absence of Brefeldin A treatment: (B) IFNγ levels (open bars) and IL-13 levels (filled bars); the detection limit was 82.3 ng/mL for both cytokines. (C) IL-12 levels (open bars) and IL-18 levels (filled bars); the detection limit was 27.4 ng/mL. Results obtained with a CD4^+ clone (HDD3) are presented, and similar data (not shown) were obtained with a DN clone (HDE3).

hCD1d = target: T1, hCD1d (Homo sapiens, UniProt P15813); assay: Loading of hCD1d tetramers with variable glycolipid to CD1d ratios; assay type: binding; conditions: for lipid excess at which tetramers were efficiently loaded: 20 nM tetramers, 25 to 1000 fold molar excess of glycolipid to hCD1d, HDD3 clone
T1 construct: we generated soluble and fluorescent tetrameric hCD1d molecules loaded with each of the glycolipid analogs; made in house
Source text: (§1) To characterize in more detail the iNKT cell TCR recognition of αGalCer analogs presented by human CD1d, we generated soluble and fluorescent tetrameric hCD1d molecules loaded with each of the glycolipid analogs. […] This was similar to the previously reported failure of mouse CD1d tetramer loaded with lysosulfatide to bind detectably to murine non-invariant and sulfatide specific NKT cells, despite a clear reactivity to this lipid upon presentation by APCs; [40]. […] To quantitate their binding avidities to iNKT cell TCRs, we used titration of analog-loaded hCD1d tetramers to determine equilibrium dissociation constants (KD), which are inversely proportional to avidity (Figure 3A and 3B).
(§2) Figure 3 Characterization of human iNKT cell TCR interactions with analog-loaded tetramers. (A) iNKT cell clones were stained with titrated amounts of hCD1d tetramers loaded with the indicated glycolipids (abbreviations as in legend to Figure 1), and the measured MFI values are plotted for selected glycolipids. (B) The equilibrium dissociation constants (KD, inversely proportional to TCR avidity) were determined as the concentrations of tetramers required to yield 50% of maximal binding. Data shown were obtained using the CD4^+ iNKT cell clone HDD3, and similar results (not shown) were obtained with a second CD4^+ clone (HDD11) and a CD4^−8^− double negative iNKT cell clone (HDE3). (C) Analysis of iNKT cell clones labeled with 20 nM of hCD1d tetramers which were loaded with variable excesses of analog to constant hCD1d (25 to 1000 fold molar excess of glycolipid to hCD1d protein). The measured MFI values were normalized as the percent of the maximum staining intensity obtained with each analog loaded tetramer. Data presented were generated with HDD3 (CD4+) iNKT cell clone, and similar results (not shown) were obtained with HDE3 (DN) clone.

human iNKT cell clones = assay: Cytokine ELISA of human iNKT cell clones stimulated with glycolipid-pulsed CD1d-transfected HeLa cells; assay type: cell-based; conditions: for EC50: Homo sapiens, iNKT, HDD3 clone, IL-4 levels did not reach a plateau; for iNKT cell clone cytokine response / agonist activity: dose range, IFNγ, IL-4, IL-13, clones HDD3, HDD11, HDE3, HDA7
Description: Capture ELISA assays were used for measurement of cytokine responses of human iNKT cells to αGalCer analogs. One day prior to the experiment, CD1d transfected HeLa cells were plated at 25×10^3 cells/well in 100 µL of medium in flat-bottom 96 well plates. Glycolipids were then added in 100 µL of medium to give final concentrations ranging from 0.05 to 10^4 nM. The APCs were incubated for approximately 18 hours with the glycolipids and then irradiated (10,000 Rad) and washed twice with PBS prior to addition of 25×10^3 iNKT cells well in 300 µL. Supernatants were harvested after 24 hours of co-culture and stored frozen at -20°C. After thawing, aliquots of the supernatants were assayed for specific cytokines by ELISA using capture and biotin-labeled detection antibody pairs specific for GM-CSF, IL-2, IL-4, IL-12p70 and IL-13 (all obtained from BD Biosciences), IFNγ (Thermo-Scientific) or IL-18 (MBL). Specific signals were developed using HRP- conjugated streptavidin (BD Biosciences) and Turbo TMB substrate (Thermo-Scientific). Supernatants were tested pure and/or diluted to give values within a quantitative linear standard curve generated with recombinant cytokines. Curves of dose-dependent cytokine responses and graphs were plotted using the Graphpad Prism Software. EC50 values were calculated using the function log (agonist) response with variable slope, and statistical analyses were carried out using the same software. To calculate concentration-dependent cytokine ratios, IL-4/IFNγ and IL-13/IFNγ ratios were calculated using cytokine values from which background levels (i.e. levels in cultures receiving DMSO vehicle alone) were subtracted. Ratios were calculated by dividing IL-4 or IL-13 concentrations in pg/mL by IFNγ concentration in ng/mL.

Human iNKT TCRs = Human iNKT TCRs (Homo sapiens, UniProt A0A075B6N4+A0A0B4J240+P15813); assay: Equilibrium binding of analog-loaded hCD1d tetramers to iNKT cell clones
Source text: For flow cytometric analysis, 6B11 (Vα24Jα18 specific) and mAbs specific for human CD3, CD4, CD8α, CD19, CD40L (CD154), CD56, CD69, GM-CSF & IFNγ were obtained from BD Biosciences. IL-4 and IL-13 specific mAbs were from Biolegend. Vα24 (C15) and Vβ11 (C21) specific mAb were from Immunotech. For antibody blocking in culture assays, non-specific isotype matched control, IL-2, IFNγ, IL-12p70 and CD40L specific mAbs without preservatives were obtained from BD Biosciences and IL-18 specific mAb from Medical & Biological Laboratories (MBL, Nagoya, Japan). Phycoerythrin and allophycocyanin labeled human CD1d tetramers were prepared in our laboratory as previously described. Curves of tetramer equilibrium binding constants and graphs were plotted using the Graphpad Prism Software (Version 5). KD values were calculated using the function non-linear fit (hyperbola, one binding site).
as §1, §2

human iNKT cells = conditions: cited from earlier work

Row | lipid excess at which tetramers were efficiently loaded (hCD1d) | EC50 (human iNKT cell clones) | binding to hCD1d (hCD1d) | Structure (SMILES) | IL-12 levels in supernatants [1] | IL-13 levels in supernatants [1] | IL-18 levels in supernatants [1] | global IFNγ production in supernatants [1] | ability to activate iNKT cells and stimulate NK cell transactivation (IFNγ+ cells) [1] | CD40L and IFNγ expression by iNKT cells ([1]; iNKT/PBMC 1/10, dose range) | staining of iNKT cell clones by analog-loaded hCD1d tetramers (Human iNKT TCRs) | iNKT cell clone cytokine response / agonist activity (human iNKT cell clones) | ability to stimulate human iNKT cells (human iNKT cells) | induction of IL-4 (human iNKT cell clones; all clones tested) | concentration required to induce detectable IL-13 production or weak IFNγ secretion (human iNKT cell clones; all iNKT cell clones tested)
1 | 25–50 fold | > 10 µM |  | CCCCCCCCCCCCCC[C@@H](O)[C@@H](O)[C@H](CO[C@H]1O[C@H](CO)[C@H](O)[C@H](O)[C@H]1O)NC(=O)c1cccc(Br)c1 [BB] | undetectable | lower, but still detectable, IL-13 levels | remained low | lower global IFNγ production | lower degree of iNKT cell activation with a limited transactivation of NK cells |  |  |  |  |  | 
2 |  | > 10 µM |  | CCCCCCCCCCCCCCCCCCCCCCCC(=O)N[C@@H](CO[C@H]1O[C@H](CO)[C@H](O)[C@H](O)[C@H]1O)[C@H](O)[C@H](O)CCCCC [OCH] |  |  |  |  |  |  | only a weak staining intensity of a subset of iNKT cell clones tested | much weaker reactivity | weak or no detectable ability to stimulate human iNKT cells | minimal | > 10 nM

Further lines, the compound ahead of its results:

Row | Structure (SMILES) | lipid excess at which tetramers were efficiently loaded (hCD1d) | EC50 (human iNKT cell clones) | binding to hCD1d (hCD1d) | IL-12 levels in supernatants [1] | IL-13 levels in supernatants [1] | IL-18 levels in supernatants [1] | global IFNγ production in supernatants [1] | ability to activate iNKT cells and stimulate NK cell transactivation (IFNγ+ cells) [1] | CD40L and IFNγ expression by iNKT cells ([1]; iNKT/PBMC 1/10, dose range) | staining of iNKT cell clones by analog-loaded hCD1d tetramers (Human iNKT TCRs) | iNKT cell clone cytokine response / agonist activity (human iNKT cell clones) | ability to stimulate human iNKT cells (human iNKT cells) | induction of IL-4 (human iNKT cell clones; all clones tested) | concentration required to induce detectable IL-13 production or weak IFNγ secretion (human iNKT cell clones; all iNKT cell clones tested)
3 | CCCCCCCCCCCCCC[C@@H](O)[C@@H](O)[C@H](CO[C@H]1O[C@H](CO)[C@H](O)[C@H](O)[C@H]1O)NC(=O)C12CC3CC(CC(C3)C1)C2 [AD] | 25–50 fold | > 10 µM |  | undetectable | lower, but still detectable, IL-13 levels | remained low | lower global IFNγ production | lower degree of iNKT cell activation with a limited transactivation of NK cells | induced with high doses |  |  |  |  | 
4 | CCCCCCCCCCCCCC[C@@H](O)[C@@H](O)[C@H](CO[C@H]1O[C@H](CO)[C@H](O)[C@H](O)[C@H]1O)NC(=O)c1ccc(F)c(F)c1 [DFB] | much higher lipid excess was necessary | > 10 µM | weak binding to hCD1d | undetectable | lower, but still detectable, IL-13 levels | remained low | lower global IFNγ production | lower degree of iNKT cell activation with a limited transactivation of NK cells |  |  |  |  |  | 
5 | CCCCCCCCCCCCCC[C@@H](O)[C@@H](O)[C@@H](N)CO[C@H]1O[C@H](CO)[C@H](O)[C@H](O)[C@H]1O [Lyso] |  |  |  | undetectable | lower, but still detectable, IL-13 levels | remained low | lower global IFNγ production | lower degree of iNKT cell activation with a limited transactivation of NK cells |  | failed to detectably stain any of our iNKT cell clones | substantially lower iNKT cell response |  |  | 
6 | CCCCCCCCCCCCCC[C@@H](O)[C@@H](O)[C@H](CO[C@H]1O[C@H](CO)[C@H](O)[C@H](O)[C@H]1O)NC(=O)c1ccc(C)cc1 [Tol] | 25–50 fold |  |  | detectable IL-12 generation | high IL-13 levels | enhanced IL-18 levels compared to vehicle control | high global production of IFNγ |  |  |  | substantially lower iNKT cell response |  |  | 
